Data on seven compounds can be found in patent US9975896B2, “Inhibitors of transcription factors and uses thereof” (Dana-Farber Cancer Institute, Inc., priority 2013, dated 2018).

The subject of assay [1] is lung carcinoma cell line H2171. The assay is described as follows: Cellular IC50 in lung carcinoma cell line H2171. It counts as cell-based. The procedure: Cells (e.g., BRD4 dependant cells) were counted and adjusted to 60,000 cells/mL. Using a Biotek EL406, 50 μL of the cells in media were distributed into 384 well white plates from Thermo. Immediately after plating, compounds of the invention in DMSO were distributed to plates. For large plate sets, cells were returned to a 37° C. incubator while not in use. The compounds were added to plates using a 100 nL 384 well pin transfer manifold on a Janus workstation. Stocks were arrayed in 10 point quadruplicate dose response in DMSO stock in 384-well Greiner compound plates. After addition of the compounds, plates were incubated for three days in a 37° C. incubator. Cell viability was read out using ATPlite from Perkin Elmer. Plates were removed from the incubator and brought to room temperature prior to use. Lyophilized powder was resuspended in lysis buffer and diluted 1:2 with DI water. 25 μL of this solution was added to each well using the Biotek liquid handler. Plates were sealed with adherent aluminum seals prior to vortexing and spinning down at 1000 g for 1 minute. Plates were incubated for 15 minutes at room temperature before signal was read on an Envision Plate Reader.

Assay [2] concerns BRD4-dependent Nut-Midline Carcinoma line 797. Description: Cell viability (ATPlite) in BRD4 dependant cell line 797. The note with it: Homo sapiens. Background: Cellular ATP, detected with luciferase, serves as a proxy for viable cell number.
In a further assay the target is BRD4 (Homo sapiens, UniProt O60885). The assay is described as follows: In vitro AlphaScreen protein binding assay (competition with biotinylated JQ1). (In general: In Alpha technology, singlet oxygen from a donor bead excites a nearby acceptor bead.)
Setting [3] is: Table 1, in vitro, AlphaScreen, inhibiting the activity of BRD4.
Where [4] appears, read: read-out: BRD4--IC50, Table 6, biochemical.

Molecules are shown by their SMILES. Like-named read-outs stand apart in the source and are kept apart here.

Broadly, the IC50 is the concentration at which inhibition is half-maximal. Consider `Cc1noc(C)c1-c1ccc(-c2nc3ccccn3c2NCc2ccccc2)cc1` [UMB11, N-Benzyl-2-(4-(3,5-dimethylisoxazol-4-yl)phenyl)imidazo[1,2-α]pyridin-3-amine], for which the IC50 in assay [1] (Homo sapiens, NCI-H2171, Table 2, cellular, lung carcinoma cell line H2171) is 0.76 µM. For the same compound, the “cellular activity in H2171” value in assay [1] (text b616) is on record as “show cellular activity in H2171”.
One may read the EC50 as the concentration at which the effect is half-maximal. As for `Cc1noc(C)c1-c1ccc(-c2nc3ccccn3c2NC2CCCCC2)cc1` [UMB28, N-Cyclohexyl-2-(4-(3,5-dimethylisoxazol-4-yl)phenyl)imidazo[1,2-α]pyridin-3-amine], the EC50 in assay [2] and in assay [2] (read-out: 797--EC50 (μM)) was 5.07 µM throughout. For the same compound, the IC50 at BRD4 (setting [3]) and at BRD4 (setting [4]) was 0.904 µM each time.
With `Cc1noc(C)c1-c1ccc(-c2nc3ccc(Cl)cn3c2NCc2ccccc2)cc1` [UMB20, N-Benzyl-6-chloro-2-(4-(3,5-dimethylisoxazol-4-yl)phenyl)imidazo[1,2-α]pyridin-3-amine], the concentration for a half-maximal effect (EC50) in assay [2] and in assay [2] (read-out: 797--EC50 (μM)) was 18.4 µM throughout. The IC50 at BRD4 (setting [3]) and at BRD4 (setting [4]) was 11.8 µM each time.
As for `CCCCN1C(=O)c2ccccc2NC(=O)C1c1ccc(-c2c(C)noc2C)c(OC)c1` (stereo not drawn) [UMB18, 2-Butyl-3-(4-(3,5-dimethylisoxazol-4-yl)-3-methoxyphenyl)-2,3-dihydro-1H-benzo[e][1,4]diazepine-1,4(5H)-dione], the concentration giving a half-maximal response (EC50) in assay [2] (read-out: 797--EC50 (μM)) came to 9.91 µM. The IC50 at BRD4 (read-out: BRD4--IC50, Table 5, biochemical) was 13 µM.
As for `COc1ccc(Nc2c(-c3ccc(-c4c(C)noc4C)cc3)nc3cnccn23)cc1` [UMB25, 2-(4-(3,5-Dimethylisoxazol-4-yl)phenyl)-N-(4-methoxyphenyl)imidazo[1,2-a]pyrazin-3-amine], the EC50 in assay [2] and in assay [2] (read-out: 797--EC50 (μM)) was 32.8 µM in each case. Further, the concentration for half-maximal inhibition (IC50) at BRD4 (setting [4]) stood at 7.86 µM.
For the compound `COc1ccc(Nc2c(-c3ccc(-c4c(C)noc4C)cc3)nc3ccc(Cl)cn23)cc1` [UMB23, 6-Chloro-2-(4-(3,5-dimethylisoxazol-4-yl)phenyl)-N-(4-methoxy-phenyl)imidazo-[1,2-α]pyridine-3-amine], the EC50 in assay [2] and in assay [2] (read-out: 797--EC50 (μM)) was 20.7 µM throughout. In addition, the concentration for half-maximal inhibition (IC50) on BRD4 (setting [3]) and at BRD4 (setting [4]) was 31.5 µM each time.
`Cc1noc(C)c1-c1ccc(-c2nc3cnccn3c2NC(C)(C)C)nc1` [UMB54, N-(tert-butyl)-2-(5-(3,5-dimethylisoxazol-4-yl)pyridin-2-yl)imidazo[1,2-a]pyrazin-3-amine]: the EC50 in assay [2] (read-out: 797--EC50 (μM)) is 8.29 µM. The IC50 at BRD4 (read-out: BRD4--IC50, Table 7, biochemical) turned out to be 12.9 µM.
